Data on ten compounds can be found in patent US9505772B2, “Aromatic ring compound” (TAKEDA PHARMACEUTICAL COMPANY LIMITED, priority 2012, dated 2016).

Assay [1] has as its target T1, human MCHR1 (Homo sapiens, UniProt Q99705).
T1 construct: expressed in transfected cells; host or cells: CHO cell clone 57 (described in WO01/82925); membrane fraction
Nature of the assay: MCH receptor 1 antagonistic activity, Ca2+ mobilization assay. It is filed as cell-based. As to conditions: test compound 0.1 μM; human MCHR1-expressing CHO cells (clone #4); MCH(4-19) 2 nM; read-out: Inhibition rate % (0.1 μM). As for the experimental part:
Measurement of MCH Receptor 1 Antagonistic Activity of Test Compound Using Ca^2+ Mobilization Assay
Using an expression vector plasmid introduced with human MCHR1 gene for expression in animal cells, human MCHR1 gene was introduced into CHO cells (CHO dhfr^−) by Lipofectamine LTX (Invitrogen). The cells were cultured in selection MEMα medium [445 mL of MEMα medium without nucleic acid and added with 5 mL of Penicillin-Streptomycin (Invitrogen) and 50 mL of dialyzed fetal bovine serum]. Colony 24 clones grown in the selection medium, which were human MCHR1 gene-expressing CHO cell candidates, were selected. […] In the following test, this human MCHR1-expressing CHO cell (clone #4) was used. An integrated dispensing function fluorometer (CellLux, PerkinElmer) was used for Ca^2+ mobilization assay. The CHO cells were sown in a 96 well plate (type 3904, Corning) with a black wall and clear well bottom at a density of 20000 cells/well, and cultured in an incubator for about 24 hr at 5% CO2, 37° C. The medium was removed, and the cells were washed with phosphate buffered saline (PBS). A Ca^2+ indicator dye reagent (DOJINDO LABORATORIES, Ca screening no-wash kit Fluo4) was added at 100 μL/well, and the dye was allowed to penetrate into the cell for 30 min in an incubator at 5% CO2, 37° C. The plate was set on a plate reader. First, a test compound solution diluted with an assay buffer [10 mM HEPES (pH 7.4), 1× assay buffer containing 0.1% BSA (DOJINDO LABORATORIES, attached to Ca screening no-wash kit Fluo4)] or DMSO solution was added at 50 μL/well, and then ligand MCH (4-19) peptide (final concentration 2 nM) diluted with assay buffer or DMSO was added at 50 μL/well, during which changes in intracellular fluorescence were measured at 2 second intervals. The antagonistic activity of the test compound was calculated by the following formula and shown as an inhibition rate (%) wherein the intracellular fluorescence activity resulting from the stimulation by the addition of ligand MCH (4-19) peptide was 100% and that of the well added with DMSO solution alone was 0%. inhibitory rate (%)=100−[fluorescence activity upon addition of test compound and MCH(4-19) peptide solution−fluorescence activity upon addition of DMSO solution only]/[fluorescence activity upon addition of DMSO solution and MCH(4-19) peptide solution−fluorescence activity upon addition of DMSO solution only]×100
The inhibition rates (%) of test compounds (0.1 μM) as antagonist activity measured using human MCHR1-expressing CHO cells (clone #4) are shown in the following Table 3.
On the technique in general: Calcium flux is commonly read through the fluorescence of an indicator in the cells.

Assay [2] addresses T1, human MCHR1. Nature of the assay: Human MCH receptor 1 (MCHR1) binding inhibitory activity, binding assay with [125I]-MCH(4-19). As to conditions: test compound 0.1 μM, human MCHR1-expressing CHO cell membrane fraction, read-out: Binding inhibition rate % (0.1 μM). As for the experimental part: Determination of Human MCH Receptor 1 (MCHR1) Binding Inhibitory Activity of Test Compound Using Binding Assay
1. Preparation of Membrane Fraction
Using human MCHR1(=SLC-1 receptor)-expressing CHO cell clone 57 described in WO01/82925, MCHR1-expressing CHO cellular membrane fractions were prepared by the following method.
In phosphate buffered saline (pH 7.4) supplemented with 5 mM EDTA (ethylenediaminetetraacetic acid) were respectively suspended human MCHR1-expressing CHO cells (1×10^8 cells) and centrifuged. Homogenate buffer (10 mL, 10 mM NaHCO3, 5 mM EDTA, pH 7.5, 0.5 mM PMSF (phenylmethylsulfonyl fluoride), 20 mg/L leupeptin, 4 mg/L E-64, 1 mg/L pepstatin A) was added to the pellets of the cells and, using Polytron Homogenizer, the mixture was homogenated. The supernatant obtained after centrifugation at 400×g for 10 min was further centrifuged at 100,000×g for 1 hr to give precipitate of the membrane fraction. The precipitate were suspended in 2 mL of assay buffer [20 mM Tris-HCl (pH 7.5), 5 mM EDTA, 0.5 mM PMSF, 20 mg/L leupeptin, 4 mg/L E-64, 1 mg/L pepstatin A]. The membrane fractions were suspended in assay buffer to a protein concentration of 2 mg/mL, and after dispensing, preserved at −80° C. and used upon thawing each time when in use.
The MCHR1 ligand binding inhibitory activity of the test compound was determined as follows.
An MCHR1-expressing CHO cellular membrane fraction (173 μL) diluted with an assay buffer was dispensed to a 96 well polypropylene plate (3363, Corning). DMSO solution (2 μL), 33 μM cold MCH(1-19) diluted with DMSO solution (2 μL), or a test compound solution diluted with DMSO solution to various concentrations (2 μL) was added, and lastly, [^125I]-MCH(4-19) diluted with assay buffer (hereinafter, sometimes to be referred to as “hot MCH”, 25 μL) was added to each well. The mixture was reacted with stirring at room temperature for 1 hr, and the plate was set on FilterMate Harvester (PerkinElmer). Using a treating glass filter plate (GF/C, PerkinElmer) with polyethyleneimine, which had been previously set, the plate was suction-filtered and washed three times with washing buffer (50 mM Tris-HCl buffer pH 7.5). The glass filter plate was dried, MicroScinti0 (PerkinElmer) was added at 25 μL/well, and the resulting radioactivity was measured by TopCount liquid scintillation counter (PerkinElmer). The binding inhibition rate of the test compound was calculated by the following formula. Binding inhibition (%)=100−(radioactivity upon addition of test compound and hot MCH−radioactivity upon addition of cold MCH and hot MCH solution)/(radioactivity upon addition of DMSO solution and hot MCH−radioactivity upon addition of cold MCH and hot MCH solution)×100
The binding inhibition rates (%) of test compounds (0.1 μM) as measured using human MCHR1-expressing CHO cell are shown in Table 2.

By inhibition is commonly meant how much of the control response was suppressed.

T1 sequence (Q99705 whole entry): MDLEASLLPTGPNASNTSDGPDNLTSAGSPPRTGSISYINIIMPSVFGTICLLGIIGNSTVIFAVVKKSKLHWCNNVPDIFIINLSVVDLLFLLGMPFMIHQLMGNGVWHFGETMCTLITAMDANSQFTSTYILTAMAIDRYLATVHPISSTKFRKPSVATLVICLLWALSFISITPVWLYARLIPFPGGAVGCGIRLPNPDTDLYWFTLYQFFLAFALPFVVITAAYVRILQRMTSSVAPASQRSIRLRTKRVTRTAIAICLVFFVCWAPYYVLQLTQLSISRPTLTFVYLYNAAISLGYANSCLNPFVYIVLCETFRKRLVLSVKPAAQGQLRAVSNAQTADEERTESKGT

In the case of `COc1cc(-n2ccc3oc(-c4ccc(Cl)cn4)cc3c2=O)ccc1OCC1(C#N)CC1` [Example 19, 1-((4-(2-(5-Chloropyridin-2-yl)-4-oxofuro[3,2-c]pyridin-5(4H)-yl)-2-methoxyphenoxy)methyl)cyclopropanecarbonitrile], the inhibition at 0.1 µM at human MCHR1 [1] turned out to be 88%; on human MCHR1 [2], 77%.
In the same order, the values of `COc1cc(-n2ccc3oc(-c4ccc(Cl)cc4)cc3c2=O)cnc1OCC1(C#N)CC1` [Example 23, 1-(((5-(2-(4-Chlorophenyl)-4-oxofuro[3,2-c]pyridin-5(4H)-yl)-3-methoxypyridin-2-yl)oxy)methyl)cyclopropanecarbonitrile] are 72% and 73%.
In the same order, the values of `COc1cc(-n2ccc3oc(-c4ccc(OC(F)(F)F)cc4)cc3c2=O)ccc1OCC1(C#N)CC1` [Example 28, 1-((2-Methoxy-4-(4-oxo-2-(4-(trifluoromethoxy)phenyl)furo[3,2-c]pyridin-5(4H)-yl)phenoxy)methyl)cyclopropanecarbonitrile] are 24% and 63%.
In the same order, the values of `Cc1cc(-n2ccc3oc(-c4ccc(Cl)cc4)cc3c2=O)ccc1OCC1(C#N)CC1` [Example 33, 1-((4-(2-(4-Chlorophenyl)-4-oxofuro[3,2-c]pyridin-5(4H)-yl)-2-methylphenoxy)methyl)cyclopropanecarbonitrile] are 34% and 84%.
On to `COc1cc(-n2ccc3oc(-c4ccc(Cl)cc4)cc3c2=O)ccc1OCC1CCCO1` (centres unmarked) [Example 36, 2-(4-Chlorophenyl)-5-(3-methoxy-4-(tetrahydrofuran-2-ylmethoxy)phenyl)furo[3,2-c]pyridin-4(5H)-one], for which the inhibition at 0.1 µM came out at 78% on human MCHR1 [1] and 95% at human MCHR1 [2].
In the same order, the values of `COc1cc(-n2ccc3oc(-c4ccc(Cl)cc4)cc3c2=O)ccc1OCC1CCOC1` (centres unmarked) [Example 39, 2-(4-Chlorophenyl)-5-(3-methoxy-4-(tetrahydrofuran-3-ylmethoxy)phenyl)furo[3,2-c]pyridin-4(5H)-one] are 84% and 96%.
In the same order, the values of `COc1cc(-n2ccc3oc(-c4ccc(Cl)cc4)cc3c2=O)ccc1OCC1COC1` [Example 40, 2-(4-Chlorophenyl)-5-(3-methoxy-4-(oxetan-3-ylmethoxy)phenyl)furo[3,2-c]pyridin-4(5H)-one] are 95% and 91%.
In the same order, the values of `COc1cc(-n2ccc3oc(-c4ccc(Cl)cc4)cc3c2=O)ccc1OCC1(C)COC1` [Example 41, 2-(4-Chlorophenyl)-5-(3-methoxy-4-((3-methyloxetan-3-yl)methoxy)phenyl)furo[3,2-c]pyridin-4(5H)-one] are 92% and 97%.
Regarding `COc1cc(-n2ccc3oc(-c4ccc(Cl)cc4)cc3c2=O)ccc1OCC1CCO1` (centres unmarked) [Example 43, 2-(4-Chlorophenyl)-5-(3-methoxy-4-(oxetan-2-ylmethoxy)phenyl)furo[3,2-c]pyridin-4(5H)-one], the inhibition at 0.1 µM came out at 99% at human MCHR1 [1] and 92% at human MCHR1 [2].
In the same order, the values of `COc1cc(-n2ccc3oc(-c4ccc(Cl)cc4)cc3c2=O)ccc1OCC1CC1(F)F` (centres unmarked) [Example 44, 2-(4-Chlorophenyl)-5-(4-((2,2-difluorocyclopropyl)methoxy)-3-methoxyphenyl)furo[3,2-c]pyridin-4(5H)-one] are 45% and 85%.
